Patent US20240174618A1, “SUBSTITUTED (2-HETEROARYLOXYPHENYL)SULFONATES, SALTS THEREOF AND THEIR USE AS HERBICIDAL AGENTS” (Bayer Aktiengesellschaft, priority 2021, published 2024)

Assays:
Assay type in all cases: in vivo
[1] = test system: Alopecurus myosuroides (ALOMY); assay: B. Herbicidal post-emergence efficacy, ALOMY; conditions: 1280 g/ha, rated visually after about 3 weeks
Procedure: (§1) Seeds of mono- and dicotyledonous weed plants were placed in plastic pots in sandy loam soil (doubly sown with in each case one species of mono- or dicotyledonous weed plants per pot), covered with soil and cultivated in a greenhouse under controlled growth conditions. 2 to 3 weeks after sowing, the test plants were treated at the one-leaf stage. The compounds of the invention, formulated in the form of wettable powders (WP) or as emulsion concentrates (EC), were applied onto the green parts of the plants as aqueous suspension or emulsion with addition of 0.5% additive at a water application rate of 600 liters per hectare (converted). After the test plants had been kept in the greenhouse under optimum growth conditions for about 3 weeks, the activity of the preparations was rated visually in comparison to untreated controls.
(§2) For example, • 100% efficacy=plants have died, • 0% efficacy=like untreated control plants
(§3) Tables B1a to B12c below show the effects of selected inventive compounds of the general formula (I) according to table 1 on various harmful plants at an application rate corresponding to 1280 g/ha or less, which were obtained by the experimental procedure mentioned above.

Veronica persica (VERPE) = assay: B. Herbicidal post-emergence efficacy, VERPE
How it was run: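 Weeds grown in sandy loam in greenhouse pots, sprayed at one-leaf stage (2–3 weeks after sowing) with WP or EC formulations as aqueous suspension/emulsion plus 0.5% additive at 600 L/ha water, rates up to 1280 g/ha. Visual efficacy rated about 3 weeks later versus untreated controls (0% = like control, 100% = dead).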

[2] = test system: Pharbitis purpurea (PHBPU); assay: C. Herbicidal pre-emergence efficacy, PHBPU; conditions: 320 g/ha, scored after about 3 weeks
Source text: Seeds of monocotyledonous and dicotyledonous weed plants and crop plants were placed in plastic or organic planting pots and covered with soil. The compounds of the invention, formulated in the form of wettable powders (WP) or as emulsion concentrates (EC), were then applied to the surface of the covering soil as aqueous suspension or emulsion with addition of 0.5% additive at a water application rate equivalent to 600 l/ha (converted). After the treatment, the pots were placed in a greenhouse and kept under good growth conditions for the test plants. After about 3 weeks, the efficacy of the preparations was scored visually in comparison with untreated controls as percentages. For example, • 100% efficacy=plants have died, • 0% efficacy=like untreated control plants.
Tables C1a to C14b below show the effects of selected compounds of the general formula (I) according to table 1 on various harmful plants at an application rate corresponding to 320 g/ha or less, which were obtained by the experimental procedure mentioned above.

[3] = test system: Alopecurus myosuroides (ALOMY); assay: E. Herbicidal post-emergence efficacy, ALOMY; conditions: application rate 320 g/ha
Procedure: (§4) Seeds of monocotyledonous and dicotyledonous weeds and crop plants were placed in sandy loam in plastic or organic planting pots, covered with soil and cultivated in a greenhouse under controlled growth conditions. 2 to 3 weeks after sowing, the test plants were treated at the one-leaf stage. The compounds of the invention, formulated in the form of wettable powders (WP) or as emulsion concentrates (EC), were then sprayed onto the green parts of the plants as aqueous suspension or emulsion with addition of 0.5% additive at a water application rate of 600 l/ha (converted). After the test plants had been kept in the greenhouse under optimum growth conditions for about 3 weeks, the activity of the preparations was rated visually in comparison to untreated controls.
(§5) For example, • 100% efficacy=plants have died, • 0% action=like untreated control plants.
(§6) Tables E1a to E12b below show the effects of selected compounds of the general formula (I) according to table 1 on various harmful plants at an application rate corresponding to 320 g/ha or less, which were obtained by the experimental procedure mentioned above.

Zea mays (ZEAMX) = assay: F. Post-emergence effect on useful plants, ZEAMX; conditions: useful plant
How it was run: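 Visual efficacy rating versus untreated plants, from 0% (no effect) to 100% (plants died), made about 3 weeks after post-emergence treatment. Formulated compounds (WP or EC, 0.5% additive, 600 l/ha water) were sprayed onto greenhouse-grown crops at the one-leaf stage, 2-3 weeks after sowing.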

[4] = test system: Digitaria sanguinalis (DIGSA); assay: A. Herbicidal pre-emergence efficacy, DIGSA; conditions: scored visually after about 3 weeks vs untreated controls
How it was run: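 Applied before emergence onto covering soil at rates of 1280 g/ha or less, using 600 L/ha spray water with 0.5% additive. Scoring: visual % efficacy after ~3 weeks, greenhouse.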

Lolium rigidum (LOLRI) = assay: B. Herbicidal post-emergence efficacy, LOLRI; conditions: 1280 g/ha
Procedure: as §1, §2, §3

[5] = test system: Digitaria sanguinalis (DIGSA); assay: E. Herbicidal post-emergence efficacy, DIGSA
Procedure: as §4, §5, §6

Post-emergence efficacy against ZEAMX in % (Zea mays (ZEAMX); application rate 80 g/ha) | Post-emergence efficacy against ZEAMX in % (Zea mays (ZEAMX); application rate 320 g/ha) | SMILES | Post-emergence efficacy against ALOMY in % [1] | Post-emergence efficacy against VERPE (Veronica persica (VERPE); 80 g/ha) | Post-emergence efficacy against VERPE (Veronica persica (VERPE); 320 g/ha) | Post-emergence efficacy against VERPE (Veronica persica (VERPE); 1280 g/ha) | Pre-emergence efficacy against PHBPU [2] | Post-emergence efficacy against ALOMY in % [3] | Pre-emergence efficacy against DIGSA ([4]; 80 g/ha) | Pre-emergence efficacy against DIGSA ([4]; 320 g/ha) | Pre-emergence efficacy against DIGSA ([4]; 1280 g/ha) | Post-emergence efficacy against LOLRI (Lolium rigidum (LOLRI)) | Post-emergence efficacy against DIGSA in % ([5]; application rate 80 g/ha) | Post-emergence efficacy against DIGSA in % ([5]; application rate 320 g/ha)
10% | – | CCCS(=O)(=O)Oc1ccccc1Oc1ncc(Cl)cn1 [Example I-3] | 90% | 90% | 100% | 100% | 80% | 80% | – | – | – | – | – | –
– | – | CC(C)CCS(=O)(=O)Oc1ccccc1Oc1ncc(Cl)cn1 [Example I-25] | – | 100% | 100% | 100% | – | – | 90% | 100% | 100% | 90% | – | –
– | – | O=S(=O)(CCC(F)(F)F)Oc1c(Br)cccc1Oc1ncc(Cl)cn1 [Example I-31] | – | 90% | 90% | 100% | – | – | – | 90% | 100% | – | – | –
0% | – | Cc1cccc(Oc2ncc(Cl)cn2)c1OS(=O)(=O)CC1CC(F)(F)C1 [Example I-74] | 90% | 100% | 100% | 100% | – | – | – | 100% | 100% | 100% | – | –
0% | 0% | COCCS(=O)(=O)Oc1c(F)cccc1Oc1ncc(Cl)cn1 [Example I-52] | – | – | – | – | – | – | – | 90% | 100% | 90% | – | –
20% | 20% | O=S(=O)(CCl)Oc1ccccc1Oc1ncc(Cl)cn1 [Example I-9] | – | – | – | 100% | – | – | – | – | – | – | – | 80%
– | – | N#Cc1cccc(Oc2ncc(Cl)cn2)c1OS(=O)(=O)CCCC(F)(F)F [Example I-81] | – | – | – | – | 100% | 90% | – | – | – | – | 80% | 90%
– | – | O=S(=O)(CC1CC1(Cl)Cl)Oc1c(F)cccc1Oc1ncc(Cl)cn1 (stereo not shown) [Example I-57] | – | 90% | – | 90% | – | – | 90% | 100% | 100% | – | – | –
20% | – | CCCCCS(=O)(=O)Oc1ccccc1Oc1ncc(Cl)cn1 [Example I-24] | – | 90% | 100% | 100% | – | – | – | 100% | 100% | 90% | – | –
– | – | O=S(=O)(CCCC(F)(F)F)Oc1c(Cl)cccc1Oc1ncc(Br)cn1 [Example I-34] | – | 100% | 100% | 100% | – | – | – | – | 90% | – | – | 90%

SMILES | Post-emergence efficacy against ZEAMX in % (Zea mays (ZEAMX); application rate 80 g/ha) | Post-emergence efficacy against ZEAMX in % (Zea mays (ZEAMX); application rate 320 g/ha) | Post-emergence efficacy against ALOMY in % [1] | Post-emergence efficacy against VERPE (Veronica persica (VERPE); 80 g/ha) | Post-emergence efficacy against VERPE (Veronica persica (VERPE); 320 g/ha) | Post-emergence efficacy against VERPE (Veronica persica (VERPE); 1280 g/ha) | Pre-emergence efficacy against PHBPU [2] | Post-emergence efficacy against ALOMY in % [3] | Pre-emergence efficacy against DIGSA ([4]; 80 g/ha) | Pre-emergence efficacy against DIGSA ([4]; 320 g/ha) | Pre-emergence efficacy against DIGSA ([4]; 1280 g/ha) | Post-emergence efficacy against LOLRI (Lolium rigidum (LOLRI)) | Post-emergence efficacy against DIGSA in % ([5]; application rate 80 g/ha) | Post-emergence efficacy against DIGSA in % ([5]; application rate 320 g/ha)
O=S(=O)(CCCC(F)(F)F)Oc1c(Cl)cccc1Oc1ncc(Cl)cn1 [Example I-39] | 20% | – | – | 90% | 90% | 90% | 90% | – | 100% | 100% | 100% | – | 90% | 100%
O=S(=O)(CCCCl)Oc1cccc(F)c1Oc1ncc(Cl)cn1 [Example I-13] | 20% | 20% | – | 90% | 100% | 100% | – | – | – | – | 100% | – | – | –
